Measurements reported in ChEMBL document CHEMBL1671786, “Probes for narcotic receptor mediated phenomena. 41. Unusual inverse μ-agonists and potent μ-opioid antagonists by modification of the N-substituent in enantiomeric 5-(3-hydroxyphenyl)morphans” (J Med Chem, 2011).

How the values were obtained:
[1] = molecular target: Delta-type opioid receptor (Homo sapiens, UniProt P41143); assay: Displacement of [125I]IOXY from human recombinant delta opioid receptor expressed in CHO cells; format: cell-based
Sequence of Delta-type opioid receptor (P41143 whole entry): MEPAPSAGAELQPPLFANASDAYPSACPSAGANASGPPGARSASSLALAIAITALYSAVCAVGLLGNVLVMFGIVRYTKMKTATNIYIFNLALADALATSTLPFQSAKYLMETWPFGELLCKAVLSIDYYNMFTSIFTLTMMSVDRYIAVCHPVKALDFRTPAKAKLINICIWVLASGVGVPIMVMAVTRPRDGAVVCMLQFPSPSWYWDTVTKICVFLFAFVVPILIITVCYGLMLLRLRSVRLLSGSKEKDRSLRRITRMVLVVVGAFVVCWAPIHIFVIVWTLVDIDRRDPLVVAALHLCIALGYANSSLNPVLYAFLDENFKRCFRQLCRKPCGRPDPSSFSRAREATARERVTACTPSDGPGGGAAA

Mu-type opioid receptor [2] = molecular target: T1, Mu-type opioid receptor (Homo sapiens, UniProt P35372)
T1 sequence (P35372 whole entry): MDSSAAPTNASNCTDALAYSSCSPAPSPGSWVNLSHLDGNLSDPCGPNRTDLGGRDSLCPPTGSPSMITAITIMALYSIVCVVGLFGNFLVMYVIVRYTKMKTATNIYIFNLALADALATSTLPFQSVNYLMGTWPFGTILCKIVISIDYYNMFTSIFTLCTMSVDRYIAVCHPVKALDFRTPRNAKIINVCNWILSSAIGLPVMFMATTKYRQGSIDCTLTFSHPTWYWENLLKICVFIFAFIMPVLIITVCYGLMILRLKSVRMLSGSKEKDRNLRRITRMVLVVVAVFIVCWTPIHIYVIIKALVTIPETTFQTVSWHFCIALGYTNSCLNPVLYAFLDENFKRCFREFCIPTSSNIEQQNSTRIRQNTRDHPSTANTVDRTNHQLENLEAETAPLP
Description: Inverse agonist activity at mu opioid receptor by [35S]GTPgammaS binding assay

Mu-type opioid receptor [3] = molecular target: T1, Mu-type opioid receptor; assay: Displacement of [125I]IOXY from human recombinant mu opioid receptor expressed in CHO cells; format: cell-based
[4] = molecular target: Kappa-type opioid receptor (Homo sapiens, UniProt P41145); assay: Displacement of [125I]IOXY from human recombinant kappa opioid receptor expressed in CHO cells; format: cell-based
Sequence of Kappa-type opioid receptor (P41145 whole entry): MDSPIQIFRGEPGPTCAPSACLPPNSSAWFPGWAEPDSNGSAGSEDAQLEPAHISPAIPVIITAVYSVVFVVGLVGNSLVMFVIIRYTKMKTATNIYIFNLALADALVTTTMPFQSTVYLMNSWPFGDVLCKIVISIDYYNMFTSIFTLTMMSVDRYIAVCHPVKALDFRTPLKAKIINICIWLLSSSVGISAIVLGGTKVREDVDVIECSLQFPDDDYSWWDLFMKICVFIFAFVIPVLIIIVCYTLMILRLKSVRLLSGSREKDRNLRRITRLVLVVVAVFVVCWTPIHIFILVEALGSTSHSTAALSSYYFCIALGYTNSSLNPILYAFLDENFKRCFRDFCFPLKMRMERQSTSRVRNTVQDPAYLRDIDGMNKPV

Mu-type opioid receptor [5] = molecular target: T1, Mu-type opioid receptor; assay: Binding affinity to mu opioid receptor

| Compound | Ki [1] [nM] | Ke (Mu-type opioid receptor [2]) [nM] | Ki (Mu-type opioid receptor [3]) [nM] | Ki [4] [nM] | Ki (Mu-type opioid receptor [5]) [nM] |
| --- | --- | --- | --- | --- | --- |
| Oc1cccc([C@]23CCC[C@H](C2)N(C/C=C\c2ccccc2)CC3)c1 (single isomer, unassigned) | 454 | 3.1 | 26 | 123 | – |
| Oc1cccc([C@@]23CCC[C@@H](C2)N(C[C@@H]2C[C@H]2c2ccccc2)CC3)c1 | 200 | 0.31 | 4 | 210 | – |
| Oc1cccc([C@]23CCC[C@H](C2)N(C[C@H]2C[C@H]2c2ccccc2)CC3)c1 | 547 | 18 | 76 | 174 | – |
| Oc1cccc([C@]23CCC[C@H](C2)N(C[C@H]2C[C@@H]2c2ccccc2)CC3)c1 | 183 | 2.2 | 16 | 323 | – |
| Oc1cccc(C23CCCC(C2)N(C/C=C/c2ccccc2)CC3)c1 (single isomer, unassigned; (-)) [listing 1 of 2 here] | 152 | – | 6 | 225 | – |
| Oc1cccc([C@]23CCC[C@H](C2)N(C[C@@H]2C[C@@H]2c2ccccc2)CC3)c1 | 610 | 8.6 | 265 | 153 | – |
| Oc1cccc([C@@]23CCC[C@@H](C2)N(C/C=C\c2ccccc2)CC3)c1 (single isomer, unassigned) | 359 | 7.7 | 14 | 367 | – |
| Oc1cccc(C23CCCC(C2)N(C/C=C/c2ccccc2)CC3)c1 (single isomer, unassigned; (-)) [listing 2 of 2 here] | – | 6.6 | – | – | – |
| Oc1cccc(C23CCCC(C2)N(C/C=C/c2ccccc2)CC3)c1 (single isomer, unassigned; (+)) [listing 1 of 2 here] | 138 | – | 2 | 125 | – |
| Oc1cccc([C@@]23CCC[C@@H](C2)N(C[C@@H]2C[C@@H]2c2ccccc2)CC3)c1 | 196 | 8.2 | 11 | 322 | – |
| Oc1cccc([C@@]23CCC[C@@H](C2)N(C[C@H]2C[C@H]2c2ccccc2)CC3)c1 | 1980 | 33 | 459 | 475 | – |
| C[C@H]1CN(CC2CC2c2ccccc2)CC[C@@]1(C)c1cccc(O)c1 (some centres undefined) | – | – | – | – | 1.75 |
| Oc1cccc([C@@]23CCC[C@@H](C2)N(C[C@H]2C[C@@H]2c2ccccc2)CC3)c1 | 165 | 0.17 | 3 | 72 | – |
| Oc1cccc(C23CCCC(C2)N(C/C=C/c2ccccc2)CC3)c1 (single isomer, unassigned; (+)) [listing 2 of 2 here] | – | 0.58 | – | – | – |
| Oc1cccc([C@]23CCC[C@H](C2)N(C[C@@H]2C[C@H]2c2ccccc2)CC3)c1 | 800 | 9.4 | 47 | 390 | – |
